Assay results reported in PMC12282101, “Heat shock protein 90 chaperone activity is required for hepatitis A virus replication” (Journal of Virology, 2025).
Counter-ions that a name gives are not always drawn.

Tests used:
[1] = system: 18f-NLuc reporter virus; assay: microbe, parasite or virus in culture; type: cell-based, Hepatitis A virus; conditions: for activity at 10 µM: Hepatovirus A, Huh-7.5.1, 72 h, read-out: Normalized HAV production
[2] = system: Huh-7.5.1 cells; assay: Cell viability in the chemical screen (Cell TiterGlo); conditions: 10 µM compound, 72 h

Compound	Normalized HAV production [1]	activity at 10 µM [1]	Viability Percent DMSO [2]
Maraviroc	0.94	–	–
CC1(C)[C@@H](O[C@H]2O[C@H](C(=O)O)[C@@H](O)[C@H](O)[C@H]2O[C@@H]2O[C@H](C(=O)O)[C@@H](O)[C@H](O)[C@H]2O)CC[C@]2(C)[C@H]3C(=O)C=C4[C@@H]5C[C@@](C)(C(=O)O)CC[C@]5(C)CC[C@@]4(C)[C@]3(C)CC[C@@H]12 [Glycyrrhizin]	–	79%	124 Percent DMSO
O[C@H]1[C@H](O)[C@@H](O)[C@H](O)[C@@H](O)[C@H]1O [Inositol]	–	122%	93 Percent DMSO
CC(C)OC(=O)[C@H](C)N[P@](=O)(OC[C@H]1O[C@@H](n2ccc(=O)[nH]c2=O)[C@](C)(F)[C@@H]1O)Oc1ccccc1 [Sofosbuvir]	–	38%	130 Percent DMSO
Cc1cn([C@@H]2C[C@@H](O)[C@H](CO)O2)c(=O)[nH]c1=O [Telbivudine]	–	156%	108 Percent DMSO
Cn1c(Cn2ccc(C(F)(F)F)c(Oc3cc(Cl)cc(C#N)c3)c2=O)n[nH]c1=O [Doravirine]	–	140%	95 Percent DMSO
Nc1nc(NC2CC2)c2ncn([C@H]3C=C[C@@H](CO)C3)c2n1 [Abacavir]	–	87%	119 Percent DMSO
COC(=O)N[C@H](C(=O)N1CCC[C@H]1c1nc(-c2ccc(-c3ccc(-c4c[nH]c([C@@H]5CCCN5C(=O)[C@@H](NC(=O)OC)C(C)C)n4)cc3)cc2)c[nH]1)C(C)C [Daclatasvir dihydrochloride]	–	88%	125 Percent DMSO
Oc1ccc(Cl)c2cccnc12 [Dermofongin]	0.98	–	101 Percent DMSO
COC[C@H]1C[C@@H](c2ncc(-c3ccc4c(c3)COc3cc5c(ccc6nc([C@@H]7CC[C@H](C)N7C(=O)[C@@H](NC(=O)OC)C(C)C)[nH]c65)cc3-4)[nH]2)N(C(=O)[C@H](NC(=O)OC)c2ccccc2)C1 [Velpatasvir]	–	52%	121 Percent DMSO
C=C1CC[C@@H]2[C@](C)(CO)[C@H](O)CC[C@@]2(C)[C@@H]1C/C=C1/C(=O)OC[C@H]1O [Andrographolide]	–	86%	106 Percent DMSO
CCOC(=O)c1c(CSc2ccccc2)n(C)c2cc(Br)c(O)c(CN(C)C)c12.Cl [Arbidol hydrochloride]	0.78	–	105 Percent DMSO
CC(C)c1nc(CN(C)C(=O)N[C@@H](CCN2CCOCC2)C(=O)N[C@H](CC[C@H](Cc2ccccc2)NC(=O)OCc2cncs2)Cc2ccccc2)cs1 [Cobicistat]	–	34%	176 Percent DMSO
CN(C)[C@@H]1C(O)=C(C(N)=O)C(=O)[C@@]2(O)C(O)=C3C(=O)c4c(O)cccc4[C@@](C)(O)[C@H]3[C@H](O)[C@@H]12 [Oxytetracycline]	–	87%	103 Percent DMSO
Nc1nc2c(ncn2CCC(CO)CO)c(=O)[nH]1 [Penciclovir]	–	111%	96 Percent DMSO
Cc1cccc(C)c1OCC(=O)N[C@@H](Cc1ccccc1)[C@@H](O)C[C@H](Cc1ccccc1)NC(=O)[C@H](C(C)C)N1CCCNC1=O [Lopinavir]	–	43%	126 Percent DMSO
Nc1ccn([C@@H]2CS[C@H](CO)O2)c(=O)n1 [Lamivudine]	–	86%	120 Percent DMSO
CO[C@H]1/C=C/O[C@@]2(C)Oc3c(C)c(O)c4c(O)c(c(/C=N/N5CCN(C)CC5)c(O)c4c3C2=O)NC(=O)/C(C)=C\C=C\[C@H](C)[C@H](O)[C@@H](C)[C@@H](O)[C@@H](C)[C@H](OC(C)=O)[C@@H]1C [Rifampicin]	–	86%	119 Percent DMSO
O=C(Nc1ncc([N+](=O)[O-])s1)c1ccccc1O [Tizoxanide]	–	113%	72 Percent DMSO
CN(C)[C@@H]1C(O)=C(C(N)=O)C(=O)[C@@]2(O)C(O)=C3C(=O)c4c(O)cccc4[C@@](C)(O)[C@H]3C[C@@H]12 [Tetracycline]	–	89%	114 Percent DMSO
COc1ncnc(NS(=O)(=O)c2ccc(N)cc2)c1OC [Sulfadoxine]	–	69%	118 Percent DMSO
O=C1Nc2ccc(Cl)cc2[C@@](C#CC2CC2)(C(F)(F)F)O1 [Efavirenz]	–	46%	165 Percent DMSO
CCS(=O)(=O)CCn1c([N+](=O)[O-])cnc1C [Tinidazole]	–	78%	108 Percent DMSO
O=C(/C=C\n1cnc(-c2cc(C(F)(F)F)cc(C(F)(F)F)c2)n1)NNc1ccccn1 [Verdinexor]	–	22%	174 Percent DMSO
Cc1cc(C)c(Nc2ccnc(Nc3ccc(C#N)cc3)n2)c(C)c1 [Dapivirine]	–	14%	114 Percent DMSO
CCCCCCCCCC(=O)O[C@H]1CC[C@H]2[C@@H]3CCC4=CC(=O)CC[C@@H]4[C@H]3CC[C@]12C [Nandrolone decanoate]	–	117%	113 Percent DMSO
